In paper PMC6950336, “Co-Occurrence of DON and Emerging Mycotoxins in Worldwide Finished Pig Feed and Their Combined Toxicity in Intestinal Cells” (Toxins, 2019):
Read-outs that look alike come from different tables or passages of the source.

Tests used:
[1] = system: IPEC-1 cells; conditions: for Individual toxicity compared with DON: IPEC-1, 48 h, dose-effect curves; for IC50: read-out: IC50 (dose leading to a 50% reduction in cell viability); for IC50 / IC50 (dose leading to a 50% reduction in cell viability): mean ± SEM of three biological replicates; for Toxicity to intestinal cells at high concentrations: IPEC-1, concentrations of up to 300 µM
[2] = system: IPEC-1 cells; assay: cells; conditions: Sus scrofa, 48 h, read-out: IC50 (dose leading to a 50% reduction in cell viability)
[3] = system: Caco-2; conditions: cited from earlier work
[4] = system: HepG2; conditions: cited from earlier work
[5] = system: lymphocytes and splenocytes; conditions: cited from earlier work
[6] = system: HepG2; conditions: HepG2, 2 mM; cited from earlier work
[7] = system: A549; conditions: A549, 2 mM; cited from earlier work
[8] = system: THP-1 cells; conditions: THP-1, 2 mM; cited from earlier work
[9] = system: IPEC-J2; conditions: read-out: relative IC50; cited from earlier work
[10] = system: human multiple myeloma blood cells; conditions: cited from earlier work
[11] = ratio 3, highest concentration(s): DON 50 µM + EMO 5 µM / ENN-B 17.2 µM / BEA 2.3 µM / ENN-A1 6.5 µM, ENN-B1 6 and 18 µM
[12] = lymphocytes and splenocytes, low doses (> 0.1µM)

CCC(=O)CCCCC[C@@H]1NC(=O)[C@H]2CCCCN2C(=O)[C@H]([C@@H](C)CC)NC(=O)[C@H](Cc2cn(OC)c3ccccc23)NC1=O [Apicidin]
Toxicity (classification from IC50 compared with DON) [1]: Highly toxic
Toxicity of the emerging mycotoxin alone [1]: not toxic
Individual toxicity compared with DON [1]: more toxic than DON
Concentration at which toxicity was confirmed ([1]; pig): > 500 nM
Toxicity of the combination of DON and the emerging mycotoxin ([1]; ratio 2, doses lower than DON (5.6 µM) + API (0.09 µM)): lower than the toxicity of DON alone, but higher than API alone
IC50 [2]: 1.5 ± 0.5 µM

Enniatin A1
IC50 [1]: 1.6 ± 0.3 µM

Beauvericin
IC50 [1]: 4.3 ± 1.8 µM

CC(C)[C@H]1C(=O)O[C@H](C(C)C)C(=O)N(C)[C@@H](C(C)C)C(=O)O[C@H](C(C)C)C(=O)N(C)[C@@H](C(C)C)C(=O)O[C@H](C(C)C)C(=O)N1C [Enniatin B]
Toxicity (classification from IC50 compared with DON) [1]: Highly toxic
Toxicity of the emerging mycotoxin alone [1]: not toxic
Individual toxicity compared with DON [1]: close to that of DON
Toxicity of the combination of DON and the emerging mycotoxin [1, 11]: lower than the toxicity of either DON alone or ENN-B alone
IC50 [2]: 4.4 ± 0.9 µM
Toxicity [3]: no toxicity at all
Toxicity [4]: no toxicity at all

CCCC[C@@H](C)[C@@H](OC(=O)C[C@@H](CC(=O)O)C(=O)O)[C@H](C[C@@H](C)C[C@H](O)CCCC[C@@H](O)C[C@H](O)[C@H](C)N)OC(=O)C[C@@H](CC(=O)O)C(=O)O [fumonisin B1]
Proliferation [5, 12]: up to 200%

CC1=C[C@H]2O[C@@H]3[C@H](O)[C@@H](O)[C@](C)([C@@]2(CO)[C@H](O)C1=O)[C@]31CO1 [nivalenol]
Proliferation [5]: up to 200%

OCCc1c[nH]c2ccccc12 [Tryptophol]
Toxicity (classification from IC50 compared with DON) [1]: Non-toxic
Toxicity to intestinal cells at high concentrations [1]: not toxic
IC50 (dose leading to a 50% reduction in cell viability) [1]: Non-Toxic
DNA damage [6]: induced DNA damage
DNA damage [7]: induced DNA damage
DNA damage [8]: induced DNA damage

O=C1N[C@@H](Cc2c[nH]c3ccccc23)C(=O)N2CCC[C@@H]12 [Brevianamide F]
Toxicity (classification from IC50 compared with DON) [1]: Non-toxic
Toxicity to intestinal cells at high concentrations [1]: not toxic
IC50 (dose leading to a 50% reduction in cell viability) [1]: Non-Toxic

aflatoxin B1
Proliferation [5]: up to 200%

CC1=C[C@H]2O[C@@H]3[C@H](O)C[C@](C)([C@@]2(CO)[C@H](O)C1=O)[C@]31CO1 [Deoxynivalenol]
Toxicity (classification from IC50 compared with DON) [1]: Highly toxic
IC50 [1]: 3.2 ± 0.7 µM
Proliferation [5, 12]: up to 200%

CC[C@H](C)[C@H]1C(=O)O[C@H](C(C)C)C(=O)N(C)[C@@H](C(C)C)C(=O)O[C@H](C(C)C)C(=O)N(C)[C@@H](C(C)C)C(=O)O[C@H](C(C)C)C(=O)N1C [Enniatin B1]
Toxicity (classification from IC50 compared with DON) [1]: Moderately toxic
Toxicity of the emerging mycotoxin alone [1]: minimal
Individual toxicity compared with DON [1]: less than that of DON
Toxicity of the combination of DON and the emerging mycotoxin ([1]; in mixture with DON, ratio 3, in general (exceptions reported separately)): the same as the toxicity of DON alone
Toxicity of the combination of DON and the emerging mycotoxin ([1]; ratio 2, highest concentration: DON 50 µM + ENN-B1 4.1 µM / ENN-B 3.6 µM / ENN-A1 1.7 µM): higher than the toxicity of ENN-B1 alone, but lower than the toxicity of DON alone
Toxicity of the combination of DON and the emerging mycotoxin [1, 11]: the same as the toxicity of ENN-B1 alone, but lower than the toxicity of DON alone
IC50 [2]: 13.5 ± 2.5 µM

COC1=C(C2=C(OC)C(=O)c3cc4oc(C)cc(=O)c4c(O)c3C2=O)C(=O)c2c(cc3oc(C)cc(=O)c3c2O)C1=O [Aurofusarin]
Toxicity (classification from IC50 compared with DON) [1]: Moderately toxic
Toxicity of the emerging mycotoxin alone [1]: minimal
Individual toxicity compared with DON [1]: less than that of DON
IC50 [1]: 19.1 ± 3.4 µM
IC50 [9]: 9.3 µM

O=C1N[C@@H](Cc2ccc(O)cc2)C(=O)N2CCC[C@@H]12 [Cyclo-(L-Pro-L-Tyr)]
Toxicity (classification from IC50 compared with DON) [1]: Non-toxic
Toxicity to intestinal cells at high concentrations [1]: not toxic
IC50 (dose leading to a 50% reduction in cell viability) [1]: Non-Toxic

Cc1cc(O)c2c(c1)C(=O)c1cc(O)cc(O)c1C2=O [Emodin]
Proliferation induced by the toxin alone [1]: up to 130%
Toxicity (classification from IC50 compared with DON) [1]: Moderately toxic
Individual toxicity compared with DON [1]: less than that of DON
Toxicity of the combination of DON and the emerging mycotoxin [1, 11]: less toxic than DON alone
IC50 [2]: 19 ± 0.7 µM
IC50 [9]: 13.1 µM
IC50 [10]: 38 µM
